pIC50: −log10 of the molar value. “Also recorded” adds a separate entry of the source.
How the values were obtained:
COX-1 = molecular target: T1, COX-1 (Ovis aries, UniProt P05979); test: COX activity assay; type: biochemical
T1 construct: purchased Cayman Chemical 700100
Protocol: (§1) COX Fluorescent Activity Assay Kit (700200), COX Fluorescent Inhibitor Screening Assay Kit (700100) and Prostaglandin E2 Enzyme Immunoassay (EIA) Kit (514010) were obtained from Cayman Chemical (Ann Arbor, Mich.). COX-1 and COX-2 activity assay were performed according to the manufacturer's protocol.

COX-2 = molecular target: T2, COX-2 (Homo sapiens, UniProt P35354); test: COX activity assay; type: biochemical
T2 construct: purchased Cayman Chemical 700100
T2 sequence (P35354 18-604): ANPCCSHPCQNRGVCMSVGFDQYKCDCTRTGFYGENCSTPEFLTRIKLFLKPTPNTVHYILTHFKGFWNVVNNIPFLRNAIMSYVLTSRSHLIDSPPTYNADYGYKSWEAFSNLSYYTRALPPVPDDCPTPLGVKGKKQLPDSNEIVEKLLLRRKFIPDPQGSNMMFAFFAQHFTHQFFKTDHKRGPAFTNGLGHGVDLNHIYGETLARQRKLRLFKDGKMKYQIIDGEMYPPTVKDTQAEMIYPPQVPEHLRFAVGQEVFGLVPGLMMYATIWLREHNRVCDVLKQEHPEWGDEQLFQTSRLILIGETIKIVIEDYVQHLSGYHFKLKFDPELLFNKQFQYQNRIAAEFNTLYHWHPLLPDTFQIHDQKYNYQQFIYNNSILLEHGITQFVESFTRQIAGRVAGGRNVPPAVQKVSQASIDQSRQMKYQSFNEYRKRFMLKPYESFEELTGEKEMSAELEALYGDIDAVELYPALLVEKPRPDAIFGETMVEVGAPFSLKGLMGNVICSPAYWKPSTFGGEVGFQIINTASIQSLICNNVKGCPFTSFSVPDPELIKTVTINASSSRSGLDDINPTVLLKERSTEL
Protocol: as §1

[1] = test system: HeLa/RXRα/1-134 stable clone; test: Colony formation (clonogenic survival) assay; type: cell-based; details: HeLa/RXRα/1-134 stable clone (also RXRα/Δ80 stable clones)
Protocol: HeLa RXR/α1-134 stable clone and control HeLa cells were seeded in 6-well plate, 350 cells/well. Five days later, cells were treated with Sulindac (50 μM) and K-80003 (25 μM) in 0.5% serum medium for 3 days. After washed with PBS, cells were fixed with 4% paraformaldehyde in PBS for 20 min. Colonies were stained with 0.1% crystal violet for 30 min, and pictures were taken and colonies were counted.

HepG2 liver cancer cells = test: PARP cleavage and caspase-8 activation with TNFα by immunoblotting; type: cell-based; details: HepG2 (K-80003: HepG2 and PC3) cells, TNFα 10 ng/ml
Protocol: ZR-75-1 cells were treated with TNFα and/or Sulindac (75 μM) or K-80003 (50 μM) for 6 hr and analyzed by immunoblotting.
HepG2 cells cultured in medium with 1% FBS were treated with SR11237 (1 μM) for 1 hr, then TNFα (10 ng/ml) and/or Sulindac (75 μM) for 4 hr, and analyzed by immunoblotting. HepG2 cells transfected with control or RXRα siRNA were treated with TNFα and/or Sulindac and analyzed by immunoblotting.

AKT = test: TNFα-induced AKT activation by immunoblotting; type: cell-based
Protocol: MEF and MCF-7 cells were starved overnight, pretreated with Sulindac for 1 hr, and stimulated with EGF (100 ng/ml) for 15 min. AKT activation was analyzed by immunoblotting (FIG. 12A). MEF and Caco-2 cells were starved overnight and pretreated with Sulindac for 30 min before exposure to all-trans-retinoic acid (ATRA) (10^−7 M) for 30 min and analyzed for AKT activation (FIG. 12B). AKT activation in ZR-75-1 breast cancer cells transfected with RXRα siRNA for 48 hr before exposure to 9-cis-RA (10^−7 M) for 30 min was also analyzed by immunoblotting (FIG. 12C). A549 lung cancer cells transfected with RXRα or control siRNA (FIG. 3C) and ZR-75-1 and PC3 cells (FIG. 3D) were pretreated with Sulindac (100 μM) for 1 hr before exposure to TNFα (10 ng/ml) for 30 min and analyzed for AKT activation and RXRα expression by immunoblotting.
For immunoblotting, cell lysates were boiled in SDS sample buffer, resolved by SDS-polyacrylamide gel electrophoresis, and transferred to nitrocellulose. After transfer, the membranes were blocked in 5% milk in TBST (10 mM Tris-HCl, pH. 8.0, 150 mM NaCl, 0.05% Tween 20) containing antibody. The membranes were then washed three times with TBST, then incubated for 1 hr at room temperature in 5% milk in TBST containing horseradish peroxide-linked anti-immunoglobulin.

[2] = molecular target: T3, RXRα ligand-binding domain (LBD) (Homo sapiens, UniProt P19793); test: Competitive ligand-binding assay with [3H]9-cis-RA
T3 construct: made in house
T3 sequence (P19793 223-462): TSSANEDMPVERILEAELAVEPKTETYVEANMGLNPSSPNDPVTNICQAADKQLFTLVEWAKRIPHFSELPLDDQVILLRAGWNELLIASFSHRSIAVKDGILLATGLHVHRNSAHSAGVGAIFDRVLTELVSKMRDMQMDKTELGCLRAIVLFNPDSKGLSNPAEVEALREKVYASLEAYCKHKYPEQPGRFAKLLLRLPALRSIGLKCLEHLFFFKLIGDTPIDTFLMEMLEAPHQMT
Protocol: Competitive ligand-binding assays (FIG. 1A) and HPLC analysis of Sulindac binding to RXRα, Nur77, or RARβ in HEK293T cells (FIG. 1B) were performed. RXRα LBD protein was incubated with [^3H]9-cis-RA in the presence or absence of Sulindac or unlabeled 9-cis-RA. Bound [^3H]9-cis-RA was quantitated by liquid scintillation counting (FIG. 1A). HEK293T cells stably expressing RXRαfused to a C-terminal TAP tag (Stratagene, La Jolla, Calif.) were treated with or without 100 μM sulindac sulfide for 3 hr. After treatment, cells were purified and analyzed by HPLC for the presence of sulindac sulfide. A standard solution of sulindac sulfide was used to obtain the calibration curve. Characteristic peak spectrum and retention time was used for identification, and peak areas at max used for quantification were calculated (FIGS. 1B and 10). Sulindac sulfide bound to RXRα with an IC50 of 80 μM (FIG. 1A), which is in the concentration range that induces apoptosis.
Bacterially expressed His-tagged RXRα ligand-binding domain (LBD) (aa 223-462) was incubated with [^3H]-9-cis-RA (Amersham Biosciences, Amersham, UK) in ligand binding assay buffer in the presence or absence of various concentrations of unlabeled 9-cis-RA or sulindac sulfide. […] Bound radiolabeled 9-cis-RA was determined in a scintillation counter as described (Kolluri, S. K. et al., Proc Natl Acad Sci USA 102 (7), 2525-2530 (2005)).

RXRα LBD = RXRα LBD (Homo sapiens, UniProt P19793); test: Proteolytic protection assay (chymotrypsin sensitivity); type: binding; details: 100 μM
Sequence of RXRα LBD (P19793 227-458 limits assumed): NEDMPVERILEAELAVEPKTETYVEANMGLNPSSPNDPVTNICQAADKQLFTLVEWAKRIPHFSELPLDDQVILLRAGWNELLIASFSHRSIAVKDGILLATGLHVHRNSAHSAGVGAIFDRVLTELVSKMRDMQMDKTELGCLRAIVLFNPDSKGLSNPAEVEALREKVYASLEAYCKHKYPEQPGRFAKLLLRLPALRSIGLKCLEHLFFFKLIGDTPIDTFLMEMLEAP
Protocol: Altered sensitivity of RXRα ligand-binding domain (LBD) to chymotrypsin (ug/ml) by Sulindac (100 μM) (FIG. 1C) and differential scanning calorimetry (DSC) scans comparing ^19F NMR spectra of Sulindac (100 μM) in the absence and presence of 10 μM RXRα LBD or Nur77 protein (FIG. 1D) were also determined. Binding to RXRα was confirmed by altered sensitivity of RXRα to chymotrypsin digestion by Sulindac (FIG. 1C) and differential scanning calorimetry (DSC) (FIG. 1D). In addition, inhibition of SR11237 (10^−6 M)-activated RXRα transactivation by Sulindac was measured (FIG. 1F, see Example 2).
RXRα LBD was synthesized by in vitro transcription-translation using rabbit reticulocyte lysates (Promega, Fitchburg, Wis.) as described previously (Kolluri, S. K. et al., Proc Natl Acad Sci USA 102 (7), 2525-2530 (2005); Zhang, X. K. et al., Nature 355 (6359), 441-446 (1992); Zhang, X.-K. et al., Nature. 358 (6387), 587-591 (1992)). In vitro translated ^35[S]methionine labeled RXRα-LBD was preincubated with solvent (1% DMSO), Sulindac (100 μM) or 9-cis-RA (10^−7 M) for 30 min. and then digested with indicated concentration of chymotrypsin. Digested fragments were separated by PAGE.

T1 sequence (P05979 25-600): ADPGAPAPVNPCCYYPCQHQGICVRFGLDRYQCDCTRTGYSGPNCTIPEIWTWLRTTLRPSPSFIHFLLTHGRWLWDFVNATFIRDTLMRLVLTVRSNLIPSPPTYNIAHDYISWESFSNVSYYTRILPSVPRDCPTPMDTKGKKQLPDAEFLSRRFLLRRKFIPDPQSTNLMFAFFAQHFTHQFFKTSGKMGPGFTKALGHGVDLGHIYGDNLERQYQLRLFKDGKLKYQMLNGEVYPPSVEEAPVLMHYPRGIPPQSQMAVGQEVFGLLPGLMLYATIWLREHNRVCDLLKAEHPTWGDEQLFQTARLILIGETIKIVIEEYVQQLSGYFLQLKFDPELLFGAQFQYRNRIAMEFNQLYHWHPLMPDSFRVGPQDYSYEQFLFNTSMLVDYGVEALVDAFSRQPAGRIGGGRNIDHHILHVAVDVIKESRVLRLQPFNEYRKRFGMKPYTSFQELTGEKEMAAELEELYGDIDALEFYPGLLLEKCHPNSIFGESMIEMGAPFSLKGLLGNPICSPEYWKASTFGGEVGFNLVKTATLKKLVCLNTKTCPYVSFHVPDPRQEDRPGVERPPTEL

| SMILES | inhibition of COX-1 activity (COX-1) | inhibition of COX-2 activity (COX-2) | inhibition of colony formation [1] | PARP cleavage and caspase-8 activation, combination with TNFα (HepG2 liver cancer cells) | inhibition of TNFα-induced AKT activation, compared with Sulindac (AKT; 50 μM each) | RXRα-binding activity, fold higher than Sulindac ([2]; competition ligand-binding assay) | inhibition of TNFα-induced AKT activation (AKT; A549 lung cancer cells, 100 μM, TNFα 10 ng/ml) | inhibition of AKT activation, Sulindac alone (AKT; ZR-75-1 and PC3 cells (high basal AKT activation)) | inhibition of AKT activation, combination with TNFα (AKT; ZR-75-1 and PC3 cells, 100 μM, TNFα 10 ng/ml) | binding to RXRα by altered sensitivity to chymotrypsin digestion (RXRα LBD) | pIC50 ([2]; competition with [3H]9-cis-RA on RXRα LBD protein) |
| --- | --- | --- | --- | --- | --- | --- | --- | --- | --- | --- | --- |
| CC1=C(CC(=O)O)c2cc(F)ccc2/C1=C\c1ccc(C(C)C)cc1 [K-80003, (Z)-2-(3-(4-Iso-propylbenzylidene)-6-fluoro-2-methyl-3H-inden-1-yl)acetic acid] | no detectable inhibition | no detectable inhibition | much more effective than Sulindac; also recorded: almost completely suppressed | synergistically induced PARP cleavage and caspase-8 activation | much more effective than Sulindac | about 34 fold |  |  |  |  |  |
| CSc1ccc(/C=C2/C(C)=C(CC(=O)O)c3cc(F)ccc32)cc1 [Sulindac, (Z)-2-(3-(4-(Methylthio)benzylidene)-6-fluoro-2-methyl-3H-inden-1-yl)acetic acid] |  |  | strongly inhibited | effectively induced PARP cleavage and caspase-8 activation |  |  | potently inhibited | little inhibitory effect | almost completely | confirmed | 4.10 |

From patent publication US10087156B2, “Methods and compositions related to retinoid receptor-selective pathway” (Sanford Burnham Prebys Medical Discovery Institute, priority 2010, dated 2018)
